Values of other authors as cited in US20220087927A1, “ANTIMICROBIAL AGENT” (priority 2020, published 2022).

Tests used:
Conditions in all cases: suspension 10^7-10^8 per ml
Staphylococcus aureus = tested on: Staphylococcus aureus
[1] = tested on: Candida (candida albicians)
[2] = tested on: Koji mold (asprogillus brasiliensis)
[3] = tested on: E. coli (Escherichia coli)
Pseudomonas aeruginosa = tested on: Pseudomonas aeruginosa

| Structure (SMILES) | MIC (minimum growth prevention concentration) (Staphylococcus aureus) [%] | MIC (minimum growth prevention concentration) [1] [%] | MIC (minimum growth prevention concentration) [2] [%] | MIC (minimum growth prevention concentration) [3] [%] | MIC (minimum growth prevention concentration) (Pseudomonas aeruginosa) [%] |
| --- | --- | --- | --- | --- | --- |
| OCCCCO [butylene glycol] | 16 | 14 | 18 | 10 | 8 |
| CCO [ethanol] | 9 | 7 | 5 | 5 | 5 |
